This is an account of results in patent US20080020995A1, “Use of Cyclodextrin Complexes Containing Lipoic Acid” (priority 2004, published 2008).

SMILES strings stand for the structures.

The data set in a line: Storage stability test of blend formulation (α-lipoic acid content). The format is physicochemical. The settings on record: absence of air and light. How it is done: First, a blend formulation of the following composition was produced: […]
50 g of creatine monohydrate; 20 g of citric acid; 5.0 g of sodium carbonate; 15 g of sodium bicarbonate; 5.0 g of lemon aroma; 0.5 g of aspartame; 0.5 g of acesulfame K; 4.0 g of magnesium hydroxide
To this blend were added 0.2% by weight of α-lipoic acid and 1.67% by weight of a racemic α-lipoic acid/α-cyclodextrin complex, respectively. The preparations obtained in each case were packaged in the absence of air and light and stored at 20° C. and 40° C.

On to `O=C(O)CCCCC1CCSS1` (racemic) [ALA, 1,2-dithiacyclopentane-3-valeric acid], for which the “α-Lipoic acid content of the blend” value is 0.19 % by weight (20° C., 1 month); 0.17 % by weight (20° C., 2 months); 0.16 % by weight (20° C., 3 months); 0.14 % by weight (20° C., 6 months); 0.12 % by weight (20° C., 9 months); 0.1 % by weight (20° C., 12 months). Moreover, the “α-Lipoic acid content of the blend” value runs as follows: (40° C., 1 month) 0.16 % by weight; (40° C., 2 months) 0.11 % by weight; (40° C., 3 months) 0.09 % by weight; (40° C., 6 months) 0.06 % by weight; (40° C., 9 months) 0.03 % by weight; (40° C., 12 months) 0 % by weight.
